The subject of one series is luciferase enzyme. The experiment in a line: ATP detection activity test in CLEAN-TRACE devices (compatibility with luciferase enzyme). The format is biochemical. The source says: The swabs were removed from the CLEAN-TRACE devices and replaced with dry, sterile Dacron swabs. One-third of the replacement swabs were dipped in solution I (see Table 1) for 20 seconds, tapped on the edge of a sterilin container 5 times (to remove excess swabbing solution), and the CLEAN-TRACE tube was reassembled with the moistened swab. One-third of the remaining replacement swabs were similarly moistened with solution II (Table 1) containing 2% (w/v) 1,2-propanediol and reassembled in the tubes. The remaining one-third were similarly moistened with solution II (Table 1) containing 5% (w/v) 1,2-propanediol and reassembled in the tubes. The reassembled devices were sealed in pouches containing 10 devices per pouch and stored at 4 degrees Celsius for 24 hours.
An ATP stock solution was prepared by reconstituting freeze-dried ATP with 500 microliters of autoclaved R.O. water to a working strength of […]. A 10-microliter aliquot of the ATP working solution was pipetted onto the middle of the bud of the test devices prepared for this Example (see above).
Individual devices were activated by plunging the handle of the swab into the test devices, thereby breaking the barrier and exposing the swab bud to the reagent solution containing luciferin. The tubes were then shaken for 20 seconds at speed 7 on the wrist action shaker (Stuart Scientific, Staffordshire, England) and the device was read device in a UNI-LITE luminometer (3M Healthcare, Bridgend, U.K.). Twenty replicate swabs were tested at each time point for each swab solution. Background readings (negative controls) were run at each time point by activating devices, containing one of the Solutions (I, IIa, or IIb), which was not spiked with the ATP solution. Ten devices were used for each negative control condition at each time point.
(§1) Swabs were prepared as described in Example 1. The swabs were tested for moisture retention as described in Example 1, for compatibility with luciferase enzyme as described in Example 3, and for perdurable detectable residue as described in Example 4. In these experiments, the swab effectiveness parameter was not recorded. All concentrations are listed as percent weight/volume. Solution I-moistened swabs were used as controls for all comparisons. Inhibition of luciferase activity was scored as significant when the measurement from the test swab was <90% of the activity observed with the control swabs. The inhibition was scored as very significant when the measurement from the test swab was <50% of the activity observed with the control swabs.

Series [1] can be described thus: Moisture retention by premoistened swab devices during extended storage. In kind it is physicochemical.
From the text: Rapid Cleanliness Test swab sampling devices, sold under the trade name CLEAN-TRACE, were obtained from 3M Health Care (Bridgend, UK). Sterile Dacron swabs were obtained from Puritan Medical Products Company (Guilford, Me.). Foil pouches (160 mm (w)×270 mm (1) heat-sealable PET/foil/LDPE laminate pouches) were obtained from Westfield Medical Ltd. (Bath, UK). The analytical balance (model GR-300) was obtained from A&D Mercury Pty., (Thebarton, South Australia)
The swabs were removed from the CLEAN-TRACE devices and replaced with dry, sterile Dacron swabs. Half of the replacement swabs were dipped in solution I (see Table 1) for 20 seconds, tapped on the edge of a sterilin container 5 times (to remove excess swabbing solution), and the swabs were weighed before each CLEAN-TRACE tube was reassembled with a moistened swab. The remaining replacement swabs were similarly moistened with solution II (Table 1), weighed, and reassembled in the tubes.
The initial weight (T0) of each moistened swab was recorded. The reassembled tubes were placed into individual plastic pouches, which were heat-sealed. Care was taken to minimize the amount of air sealed in each pouch. The pouches were divided into two groups. One group was placed into a refrigerator which was held at a temperature of 4±3 degrees Celsius. The other group was placed into a chamber which was held at 25±1 degree Celsius. Sets of ten replicate tubes were removed from each chamber at each specified time point, the tubes were removed from the pouch and weighed, and the weights were recorded.
as §1

Where [2] appears, read: 5% w/v, vs Solution I control swabs.
The mark [3] stands for this setting: 5% w/v in Solution II, vs Solution I control.
Setting [4] is: 1% w/v in Solution II, vs Solution I control.

For `OCC(O)CO` [Glycerol], the “Compatibility with luciferase enzyme” value in the series on luciferase enzyme (up to 5% (1, 5% tested)) was “No inhibition up to 5%”. Moreover, the Moisture retention result in series [1] (1, 5% tested) was “Comparable to sorbitol and propylene glycol”; in series [1] (10, 20, 50% tested), “Comparable to sorbitol and propylene glycol”.

With `CC(=O)NCCO` [Incromectant (N-Acetylethanolamine), N-Acetylethanolamine], the “Compatibility with luciferase enzyme” value in the series with luciferase enzyme (setting [2]) was “Some inhibition at 5%”. The Moisture retention in series [1] (setting [3]) is recorded as 5% solution was comparable to PG.

For `CC(O)CO` (centres unmarked) [Propylene glycol (1,2-propanediol), 1,2-propanediol], the “Compatibility with luciferase enzyme” value in the series on luciferase enzyme (1, 2, 3, 4% tested) is listed as “No inhibition”; in the series with luciferase enzyme (5, 6, 8% tested) it was “No inhibition”. The Moisture retention result is listed as “No significant improvement” in series [1] (setting [4]); “Significant improvement ≥5%” in series [1] (≥5% (5, 6, 8% tested)); “Significant improvement ≥5%” in series [1] (≥5% (10. 20, 25, 50% tested)).

Consider `CC(O)C(=O)[O-].[Na+]` (centres unmarked) [Sodium lactate], for which the “Compatibility with luciferase enzyme” value in the series on luciferase enzyme (setting [2]) is listed as “Significant inhibition”. In addition, the Moisture retention result in series [1] (5 or 10% soln.) is listed as “No significant improvement with 5 or 10%”.

As for `OC[C@@H](O)[C@@H](O)[C@H](O)[C@@H](O)CO` [Sorbitol], the “Compatibility with luciferase enzyme” value with luciferase enzyme (1% w/v, vs Solution I control swabs) is reported as “No inhibition”; in the series with luciferase enzyme (setting [2]), “No inhibition”. Moreover, the Moisture retention entry is reported as “No significant improvement with 1%” in series [1] (setting [4]); “Slight improvement with 5%” in series [1] (setting [3]); “Significant improvement with ≥10%” in series [1] (≥10% (10, 20, 30, 40, 50, 100% tested)).

(Values after US10845369B2, “Sampling devices and methods of use” (3M INNOVATIVE PROPERTIES COMPANY, priority 2008, dated 2020).)
